Data taken from publication PMC12040169 (PLOS Biology, 2025).

Test: in vitro
Details: human, hela cells, % viability

| SMILES | viability at 28.5 h, 10 µM [%] |
| --- | --- |
| OCCCNC(=S)NCCc1ccccc1 [CBK264869] | 99.7 |
| O=C(Nc1cc(Cl)ccc1C(=O)NC1CCC(O)CC1)c1cccs1 (centres unmarked) [CBK306186] | 89.2 |
| Cn1c(NCc2ccccn2)nc2ccccc21 [CBK268544] | 110 |
| Cc1c(-c2cncn2CC(=O)NC(C)(C)C)[nH]c2ccccc12 [CBK281911] | 87.5 |
| N#Cc1cccnc1N1CCC(NC(=O)c2ccc3nccn3c2)CC1 [CBK306566] | 95.1 |
| COc1ccc([N+](=O)[O-])c(Oc2ccccc2OCc2ccccc2)n1 [CBK002753] | 88 |
| COc1ccc(C(Nc2ccnc(OC)c2C#N)[C@H]2C[C@@H](O)C2)cn1 (some centres unmarked) [CBK306980] | 84.6 |
| Cc1cccc(N(CC(=O)Nc2cccnc2)S(=O)(=O)c2ccc(Cl)cc2)c1 [CBK268676] | 85.3 |
| Cc1nc(N/C(=N/C(=O)c2ccccc2)NC(=O)c2ccccc2)nc2ccccc12 [CBK262529] | 103 |
| CCc1cccc2c(CC(=O)NCCn3ccc(C)n3)c(C)[nH]c12 [CBK282698] | 105 |
| CC[C@H]1C[N@@]2CC[C@H]1C[C@@H]2CNS(=O)(=O)c1ccc(NC(C)=O)cc1 [CBK288745] | 82.9 |
| O=C(NCc1cccs1)N1CCCN(Cc2ccc(F)cc2)CC1 [CBK306294] | 97.4 |
| CC(=O)Nc1cccc(NC(=O)N2CCN(C3CCN(C)CC3)CC2)c1 [CBK155901] | 85.1 |
| Cn1nc(CO)c2c1CCN(CC(=O)Nc1nc(C(C)(C)C)cs1)C2 [CBK307161] | 85.7 |
| COc1ccc(CN2CCCN(C(=O)c3cccc(C#N)c3)CC2)cc1 [CBK305281] | 88.5 |
| Brc1cn2ccnc2c(NCC2CC2)n1 [CBK037432] | 93.6 |
| FC(F)(F)Oc1ccccc1-c1nnc(NC2CCCCCC2)s1 [CBK074041] | 93.8 |
| Cc1nn2c(C)c(C(=O)Nc3ccccc3)nnc2c1-c1ccccc1 [CBK270198] | 85.6 |
| O=C(NCc1nnc(-c2cccs2)o1)c1cccc(F)c1F [CBK284634] | 91.1 |
| Cc1cc(C)n(C2CCN(Cc3c(C)nc4c(C)cccn34)CC2)n1 [CBK281617] | 101 |
| COc1ccccc1C(CN)C1CCCCC1 (centres unmarked) [CBK009878] | 99.7 |
| O=C(c1cccs1)N1CCN(Cc2cc(=O)n3ccsc3n2)CC1 [CBK305872] | 119 |

| SMILES | viability at 28.5 h, 10 µM [%] |
| --- | --- |
| CCOC(=O)c1cccnc1-c1cc2ccccc2o1 [CBK149237] | 99.7 |
| Cc1nc(Nc2ccc(Cl)cc2)nc(Oc2ccccc2)n1 [CBK003915] | 101 |
| O=C1CCCN1CCOc1nccnc1-c1ccccc1Cl [CBK106999] | 100 |
| Cc1ccc2c(C)c(C(=O)Nc3ccc(S(N)(=O)=O)cc3)oc2c1 [CBK267661] | 110 |
| Clc1ccc(CN2CCC(Oc3cncc(OCCN4CCOCC4)n3)C2)cc1 (centres unmarked) [CBK084480] | 90.9 |
| Cc1cc(NS(=O)(=O)c2ccc(Br)cc2C(F)(F)F)n(C)n1 [CBK067255] | 107 |
| CS(=O)(=O)N(CC(=O)N1CCN(Cc2ccc3c(c2)OCO3)CC1)c1cccc(F)c1 [CBK074572] | 102 |
| Cc1cc(C)c(C)c(C(=O)COC(=O)c2cc(O)nc3ccccc23)c1C [CBK264066] | 94.8 |
| Cc1cc(F)c(S(=O)(=O)NCCN2CCOCC2)cc1NC(=O)c1ccc(Br)o1 [CBK059091C] | 89.7 |
| CC(=O)Nc1cccc(-n2cc(-c3cccc(C(F)(F)F)c3)nn2)c1 [CBK112938] | 91.2 |
| O[C@@]1(c2ccccn2)CC[C@H]2CN(Cc3ccccc3F)C[C@H]21 [CBK283001] | 94.3 |
| Cc1csc(NC(=O)CN2CCOC(c3ccc(F)cc3)C2)n1 (centres unmarked) [CBK304703] | 116 |
| Cc1ccc(C)c(NC(=O)CCNC(=O)c2cnn3cc(C)cnc23)c1 [CBK306590] | 87.5 |
| Cc1nc([N+](=O)[O-])cn1CCC(=O)Nc1ccccc1Oc1ccccc1Cl [CBK298319] | 101 |
| CC(C)C[C@H](NC(=O)NCCN1CCOCC1)C(=O)O [CBK286619] | 99.4 |
| CN1CC=C(/C=C/c2c[nH]c3ccccc23)CC1 [CBK283602] | 89.4 |
| CCc1nnc(SCC(=O)N2c3ccccc3Sc3ccccc32)[nH]1 [CBK268687] | 110 |
| CCNc1nccnc1-c1cccc(O)c1 [CBK088593] | 103 |
| COc1ccc(C2C(C(=O)Nc3ccc(C)cc3)=C(C)Nc3ncnn32)cc1OC (centres unmarked) [CBK294416] | 90.9 |
| Cc1nn(C)cc1CN1CCN(CC2(c3ccccc3)CC2)CC1 [CBK282721] | 105 |
| CCN(CC(=O)NC(C)(C)C)Cc1nc(-c2cccc(Br)c2)no1 [CBK304230] | 102 |
| O=C(CCN1C(=O)c2ccccc2C1=O)N1CCOCCOCCN(C(=O)CCN2C(=O)c3ccccc3C2=O)CCOCCOCC1 [CBK260964] | 89.9 |

| SMILES | viability at 28.5 h, 10 µM [%] |
| --- | --- |
| O[C@@]1(c2ccccn2)CC[C@H]2CN(Cc3ccc(F)c(F)c3)C[C@H]21 [CBK285456] | 107 |
| CC(Oc1nccnc1OCc1ccc(Cl)c(Cl)c1)c1ccncc1 (centres unmarked) [CBK161609] | 84.1 |
| COCC(=O)N1CCc2sccc2C1c1ccc(NCc2ccc(OC)cc2)cc1 (centres unmarked) [CBK286458] | 85.1 |
| CC(C)CNc1nc(-c2ccc(F)cc2)cnc1N [CBK063815] | 105 |
| O=C1COc2ccccc2CCCCC2(CCCNC2)CN1 (centres unmarked) [CBK292166] | 90.5 |
| c1cnc2[nH]c(C3CC3)c(CN3CCN4CCCCC4C3)c2c1 (centres unmarked) [CBK285313] | 81.5 |
| Cc1cc(Br)c2c(c1)C(O)(N1CCCCC1C)C(=O)N2 (centres unmarked) [CBK265071] | 97.9 |
| CN1CCCC(C(O)c2ccccc2)C1 (centres unmarked) [CBK012472] | 96.9 |
| CCOc1ccc(S(=O)(=O)N2CCC(C(=O)O)CC2)cc1Cl [CBK269759] | 97.4 |
| O=C(Nc1nc2ccccc2s1)c1cnccn1 [CBK058664] | 83.9 |
| CN(C)c1ccc(C=C2CCCC3C2=NN(C(=O)CCC(=O)O)C3c2ccc(N(C)C)cc2)cc1 (centres unmarked) [CBK296065] | 86.8 |
| CNCc1cn(C[C@H]2CC3CCN2C[C@@H]3C(=O)N2CCCC2)nn1 (some centres unmarked) [CBK289087] | 104 |
| Cc1cccn2c(=O)c(/C=C3\SC(=S)N(CC4CCCO4)C3=O)c(NCCCn3ccnc3)nc12 (centres unmarked) [CBK263825] | 119 |
| Cc1cc(C)n(CC(O)CN(Cc2ccco2)CC2CC=CCC2)n1 (centres unmarked) [CBK283159] | 95.6 |
| Cc1ccc(S(=O)(=O)N2CCOCC2)cc1C(=O)NCCc1ccccc1 [CBK269658] | 99 |
| O=C(COc1ccccc1O)NCCN1CCOCC1 [CBK262243C] | 84 |
| Cc1cc(=O)c(C#N)c(C)[nH]1 [CBK023326] | 92.4 |
| COc1cccc2sc(Nc3nc(-c4cccs4)cs3)nc12 [CBK287469] | 82.8 |
| COC(=O)c1ccc(N2CCN(C)CC2)c(NC(=O)c2cc(Br)ccc2OC)c1 [CBK269221] | 92 |
| CCCC/C=C/c1cnc(Nc2ccc(N3CCOCC3)cc2)c2nccn12 [CBK091239] | 91.3 |
| COc1ccc([C@H](NC(=O)C2CCN(C(=O)OCc3ccccc3)CC2)c2ccccc2C)cn1 [CBK084639] | 92.9 |
